# In paper PMC9854762, “Antibiofilm and Anti-Quorum-Sensing Activities of Novel Pyrazole and Pyrazolo[1,5-a]pyrimidine Derivatives as Carbonic Anhydrase I and II Inhibitors: Design, Synthesis, Radiosterilization, and Molecular Docking Studies” (Antibiotics, 2023):
# Like-named read-outs stand apart in the source and are kept apart here.
# Columns and labels:
# [1] = test system: A. baumannii DH-243; test: Agar well-diffusion assay; format: cell-based; conditions: Acinetobacter baumannii
# Experimental: (§1) The synthesized compounds were initially screened for their in vitro antibacterial activity against the different Gram-positive and Gram-negative bacteria, tested using the agar well-diffusion assay. The turbidity of the bacterial suspensions was established to the 0.5 McFarland turbidity standard. The activity was performed on TS agar plates. The bacteria were spread on the surface of the agar plates, and 10 mm wells were screwed into the agar plates. The assay was performed under aseptic conditions. An aliquot of 50 µL of each tested compound (10 mM) was added to the wells, and the plates were incubated overnight at 37 °C. Both Erythromycin and Amikacin antibiotic disks were used as positive control, while DMSO solvent was used as a negative control in this study. The diameters of inhibition zones were measured and recorded in mm. A comparative study of the synthesized compounds was determined. The experiment was performed in triplicates.
# [2] = test system: E. coli DH-5987; test: Agar well-diffusion assay; format: cell-based; conditions: Escherichia coli, DH5987, 50 µL of 10 mM per well, read-out: Diameter of Inhibition Zones (AZOI)
# Experimental: as §1
# [3] = test system: E. faecalis DH-5478; test: Agar well-diffusion assay; format: cell-based; conditions: Enterococcus faecalis, DH5478; E. faecalis DH-5478; 50 µL of 10 mM per well; read-out: Diameter of Inhibition Zones (AZOI)
# Experimental: as §1
# [4] = test system: S. aureus DH-432; test: Agar well-diffusion assay; format: cell-based; conditions: Staphylococcus aureus, DH432; S. aureus DH-432; 50 µL of 10 mM per well; read-out: Diameter of Inhibition Zones (AZOI)
# Experimental: as §1
# [5] = test system: S. pyogenes DH-3467; test: Agar well-diffusion assay; format: cell-based; conditions: Streptococcus pyogenes, DH3467; S. pyogenes DH-3467; 50 µL of 10 mM per well; read-out: Diameter of Inhibition Zones (AZOI)
# Experimental: as §1
# [6] = test system: P. aeruginosa DH-5698; test: Agar well-diffusion assay; format: cell-based, Pseudomonus aeruginosa; conditions: Pseudomonas aeruginosa
# Experimental: as §1
# [7] = test system: E. faecalis DH-5478; test: Broth microdilution MIC/MBC; format: cell-based, Enterococcus faecalis; conditions: for MIC: Enterococcus faecalis, DH5478, 24 h, read-out: MIC (Mean ± SEM); for MBC/MIC: value in brackets
# Experimental: (§2) The broth microdilution method was taken as a basis to detect the MICs of pyrazole compounds against tested clinical isolates, according to the Clinical Laboratory and Standards Institute guidelines. The broth cultures were used to prepare the bacterial inoculums, and the suspensions were adjusted to the standard 0.5 McFarland turbidity. Stock solutions of the synthesized pyrazoles were prepared in pure DMSO and further serially diluted with TS broth in the concentration range from 128 µg/mL to 0.0625 µg/mL. A well containing noninoculated TS broth, free of any antimicrobial agents, was also included to ensure the medium sterility, while Erythromycin and Amikacin served as positive controls. Bacterial growth was determined by adding 20 µL of 0.5% TTC (2,3,5-triphenyltetrazolium chloride) aqueous solution. […] All experiments were repeated three times. The bactericidal effect from each concentration of the pyrazole and pyrazolo[1,5-a]pyrimidine derivatives showing growth inhibition was further studied. For this study, a loopful of 5 µL was taken from each no-visible growth tube and streaked onto plates of TS agar.
# [8] = test system: S. aureus DH-432; test: Broth microdilution MIC/MBC; format: cell-based, Staphylococcus aureus; conditions: for MIC: Staphylococcus aureus, DH432, 24 h, read-out: MIC (Mean ± SEM); for MBC/MIC: value in brackets
# Experimental: as §2
# [9] = test system: S. pyogenes DH-3467; test: Broth microdilution MIC/MBC; format: cell-based, Streptococcus pyogenes; conditions: for MIC: Streptococcus pyogenes, DH3467, 24 h, read-out: MIC (Mean ± SEM); for MBC/MIC: value in brackets
# Experimental: as §2
# [10] = test system: A. baumannii DH-243; test: Broth microdilution MIC/MBC; format: cell-based, Acinetobacter baumannii; conditions: for MIC: Acinetobacter baumannii, DH243, 24 h, read-out: MIC (Mean ± SEM); for MBC/MIC: value in brackets
# Experimental: as §2
# [11] = test system: E. coli DH-5987; test: Broth microdilution MIC/MBC; format: cell-based, Escherichia coli; conditions: for MBC/MIC: value in brackets; for MIC: read-out: MIC (Mean ± SEM)
# Experimental: as §2
# [12] = test system: P. aeruginosa DH-5698; test: Broth microdilution MIC/MBC; format: cell-based, Pseudomonus aeruginosa; conditions: for MIC: Pseudomonas aeruginosa, DH5698, 24 h, read-out: MIC (Mean ± SEM); for MBC/MIC: value in brackets
# Experimental: as §2
# [13] = DH243, A. baumannii DH-243, 50 µL of 10 mM per well, read-out: Diameter of Inhibition Zones (AZOI)
# [14] = DH5698, P. aeruginosa DH-5698, 50 µL of 10 mM per well, read-out: Diameter of Inhibition Zones (AZOI)
# [15] = Escherichia coli, DH5987, E. coli DH-5987, 24 h
SMILES,"zone of inhibition at 10000 µM [1, 13] [mm]",zone of inhibition at 10000 µM [2] [mm],zone of inhibition at 10000 µM [3] [mm],zone of inhibition at 10000 µM [4] [mm],zone of inhibition at 10000 µM [5] [mm],"zone of inhibition at 10000 µM [6, 14] [mm]",MIC [7] [µg/mL],MBC/MIC [7],MIC [8] [µg/mL],MBC/MIC [8],MIC [9] [µg/mL],MBC/MIC [9],MIC [10] [µg/mL],MBC/MIC [10],MBC/MIC ([11]; E. coli DH-5987),"MIC [11, 15] [µg/mL]",MIC [12] [µg/mL],MBC/MIC [12],melting point [°C],other results
"CCOC(=O)c1ccc(N=Nc2c(N)nn3c(O)c(C#N)c(-c4ccc(Cl)cc4)nc23)cc1 [Compound 10b, Ethyl 4-((2-amino-5-(4-chlorophenyl)-6-cyano-7-hydroxypyrazolo[1,5-a]pyrimidin-3-yl)diazenyl)benzoate]",24.2,27.1,25.1,26.8,26.3,26.3,2 ± 0.3,1,1.5 ± 0.3,0.5,1.5 ± 0.2,0.5,2 ± 0.2,1,0.5,0.75 ± 0.1,1.5 ± 0.1,0.5,270 to 272,–
"CCOC(=O)c1ccc(N=Nc2c(N)nn(-c3ccccc3)c2N)cc1 [Compound 3b, Ethyl 4-((3,5-diamino-1-phenyl-1H-pyrazol-4-yl)diazenyl)benzoate]",23.1,26.9,24.4,25.2,24.7,25.1,0.75 ± 0.2,0.5,0.5 ± 0.1,1,0.75 ± 0.4,1,1 ± 0.3,0.5,1,0.5 ± 0.2,1 ± 0.2,0.5,144 to 146,–
"CCOC(=O)c1ccc(N=Nc2c(N)nn3c(N)c(C#N)c(-c4ccc(OC)cc4)nc23)cc1 [Compound 9b, Ethyl-4-((2,7-diamino-6-cyano-5-(4-methoxyphenyl)pyrazolo[1,5-a]pyrimidin-3-yl)diazenyl)benzoate]",23,26.5,24.3,25,25.7,25.4,2 ± 0.2,1,1.5 ± 0.2,1,2 ± 0.3,0.5,2 ± 0.1,1,0.5,1 ± 0.3,1.5 ± 0.2,0.5,210 to 212,–
"CCOC(=O)c1ccc(N=Nc2c(N)nn(C(O)=CC#N)c2N)cc1 [Compound 4, Ethyl 4-((3,5-diamino-1-(2-cyano-1-hydroxyvinyl)-1H-pyrazol-4-yl)diazenyl)benzoate]",21.3,22.4,22.1,24.7,23.4,20.5,2 ± 0.3,0.5,1 ± 0.4,0.5,1.5 ± 0.3,0.5,2 ± 0.4,0.5,1,0.75 ± 0.3,1.5 ± 0.2,1,290 to 292,–
"CCOC(=O)c1ccc(N=Nc2c(N)nn3c(-c4ccco4)cc(-c4ccccc4)nc23)cc1 [Compound 8b, Ethyl 4-((2-amino-7-(furan-2-yl)-5-phenylpyrazolo[1,5-a]pyrimidin-3-yl)diazenyl)benzoate]",16.5,20.1,17.3,19.5,18.7,18.4,4 ± 0.1,2,4 ± 0.3,2,8 ± 0.2,1,8 ± 0.2,2,1,2 ± 0.3,4 ± 0.1,2,212 to 214,–
"CCOC(=O)c1ccc(N=Nc2c(N=Cc3ccc(OC)cc3)n[nH]c2N)cc1 [Compound 5b, Ethyl-4-((5-amino-3-((4-methoxybenzylidene)amino)-1H-pyrazol-4-yl)diazenyl)benzoate]",23.4,25.7,25.4,26.2,24.1,24.7,1.5 ± 0.3,1,1 ± 0.3,1,1 ± 0.2,1,2 ± 0.1,0.5,0.5,1 ± 0.2,2 ± 0.3,1,210 to 212,–
"CCOC(=O)c1ccc(N=Nc2c(N)nn3c(N)c(C#N)c(-c4ccc(Cl)cc4)nc23)cc1 [Compound 9c, Ethyl-4-((2,7-diamino-5-(4-chlorophenyl)-6-cyanopyrazolo[1,5-a]pyrimidin-3-yl)diazenyl)benzoate]",23.9,25.2,23.1,24.2,23.5,24.1,4 ± 0.2,1,2 ± 0.3,1,2 ± 0.1,1,4 ± 0.4,1,1,1 ± 0.3,2 ± 0.2,1,288 to 290,–
"NCC[C@H](O)C(=O)N[C@@H]1C[C@H](N)[C@@H](O[C@H]2O[C@H](CN)[C@@H](O)[C@H](O)[C@H]2O)[C@H](O)[C@H]1O[C@H]1O[C@H](CO)[C@@H](O)[C@H](N)[C@H]1O [AK, Amikacin, reference compound]",–,11,–,–,–,–,–,–,–,–,–,–,128 ± 0.2,4,4,32,128 ± 0.1,4,–,"zone of inhibition at 10000 µM ([1]; DH243, read-out: Diameter of Inhibition Zones (AZOI)): 13 mm; zone of inhibition at 10000 µM ([6]; DH5698, read-out: Diameter of Inhibition Zones (AZOI)): 14 mm; MIC (Mean ± SEM) ([11]; E. coli DH-5987, 24 h): 32 ± 0.2 µg/mL; MBC ([11]; Escherichia coli, DH5987, E. coli): 128 µg/mL"
"CCOC(=O)c1ccc(N=Nc2c(N)nn3c(-c4ccc(Cl)cc4)cc(-c4ccccc4)nc23)cc1 [Compound 8c, Ethyl-4-((2-amino-7-(4-chlorophenyl)-5-phenylpyrazolo[1,5-a]pyrimidin-3-yl)diazenyl)benzoate]",15.2,17.8,15.1,16.1,15.4,16.3,8 ± 0.2,2,4 ± 0.1,1,4 ± 0.2,2,8 ± 0.4,2,2,4 ± 0.1,8 ± 0.3,2,–,–
